Laboratory results: US11655236B2, “Activity-based probe compounds, compositions, and methods of use” (THE BOARD OF TRUSTEES OF THE LELAND STANFORD JUNIOR …, priority 2013, dated 2023)

Tested on: cysteine cathepsins
Assay: Inhibition of probe labeling in living RAW cells by JPM-OEt pretreatment
Assay type: cell-based, mouse
Conditions: pre-treatment of living RAW cells with JPM-OEt (50 μM, 1 hr); labeling by qABP 8
Procedure: RAW cells were cultured in DMEM (GIBCO) supplemented with 10% fetal bovine serum (FBS; GIBCO), 100 units/mL penicillin and 100 μg/mL streptomycin (GIBCO). 4T1 cells (ATCC) were cultured in RPMI (GIBCO) supplemented with 10% fetal bovine serum (FBS; GIBCO), 100 units/mL penicillin and 100 μg/mL streptomycin (GIBCO). All cells were cultured in a 5% CO2 humidified incubator at 37° C. For intact cell labeling, cells were exposed to probe (500× in DMSO) in culture media and incubated for 2 hr at 37° C., unless stated otherwise. Where indicated the cells were preincubated for 1 hr with the inhibitor JPM-OEt (500× in DMSO) or exposed to mouse serum (1 μl probe stock solution in DMSO added to 9 μl serum) for 4 hr before addition to the cells. After labeling, the cells were washed with PBS and resuspended in hypotonic lysis buffer (50 mM PIPES pH 7.4, 10 mM KCl, 5 mM MgCl2, 2 mM EDTA, 4 mM DTT, and 1% NP-40) and put on ice for 15 min, centrifuged at 4° C. for 30 min and supernatants were collected, and protein concentration was determined using a BCA kit (pierce). […] Labeling intensities were quantified using Image J software. […] After 15 min on ice and centrifugation at 4° C. for 30 min the supernatants were collected, and protein concentration was determined using a BCA kit (pierce). […] 4×SDS-sample buffer was added and the protein was denatured for 3 min at 100° C. and analyzed as described above. […]

JPM-OEt was tested. Which “blocking of probe labeling” value did it give?
The value was “more than 90%”.
